The results in this text go back to US8455534B2, “Estrogen receptor modulators and uses thereof” (Aragon Pharmaceuticals, Inc., priority 2010, dated 2013).

One experiment has as its target T1, ER-α (Homo sapiens, UniProt P03372).
T1 sequence (P03372 1-595): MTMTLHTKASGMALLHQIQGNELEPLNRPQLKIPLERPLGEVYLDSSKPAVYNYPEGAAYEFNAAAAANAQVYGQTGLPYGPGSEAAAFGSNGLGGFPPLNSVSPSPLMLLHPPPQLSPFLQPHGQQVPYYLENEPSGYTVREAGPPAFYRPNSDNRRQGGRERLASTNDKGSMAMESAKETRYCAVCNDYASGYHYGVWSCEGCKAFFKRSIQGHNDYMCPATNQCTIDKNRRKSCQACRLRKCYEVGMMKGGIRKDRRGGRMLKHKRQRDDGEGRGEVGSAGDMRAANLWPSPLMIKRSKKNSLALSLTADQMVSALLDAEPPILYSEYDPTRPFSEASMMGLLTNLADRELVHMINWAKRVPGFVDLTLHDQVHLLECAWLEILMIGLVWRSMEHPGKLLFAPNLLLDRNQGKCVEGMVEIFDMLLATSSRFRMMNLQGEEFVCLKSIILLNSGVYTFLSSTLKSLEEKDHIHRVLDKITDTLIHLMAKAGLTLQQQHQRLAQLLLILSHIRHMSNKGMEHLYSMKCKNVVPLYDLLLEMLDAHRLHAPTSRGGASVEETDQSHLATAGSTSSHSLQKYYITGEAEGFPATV
Briefly: Breast Cancer Cell ER-α In Cell Western Assay (SP1). The following applies: MCF-7 cells, SP1 antibody, 4 or 24 hr post compound addition; for Emax: MCF7, read-out: ER-α In Cell Western Assay (SP1) Max Response; for DC50: read-out: ER-α In Cell Western Assay (SP1) IC50. The format is cell-based. Here is the method:
MCF-7 cells were adjusted to a concentration of 200,000 cells per mL in RPMI containing 10% charcoal-stripped FBS and 20 mM HEPES. 16 microliters of the cell suspension (3200 cells) was added to each well of a poly-D-lysine 384 well plate, and the cells were incubated overnight to allow the cells to adhere. The following day an eleven point, serial semilog dilution of each compound was added to the cells in 16 μL at a final concentration ranging from 0.3-0.000003 μM. At 4 or 24 hr post compound addition, the cells were fixed (10% formalin in PBS) for 20 minutes. Cells were permeablized in PBS 0.1% Triton and blocked with LICOR blocking buffer (50 μL1/well, 90′). The wells were then incubated overnight at 4° C. with SP1 rabbit monoclonal Ab (Thermo Scientific) diluted 1:1000 in LICOR blocking buffer/0.1% Tween-20. Wells which were treated with blocking buffer with Tween but no antibody were used as a background control. Wells were washed with 0.1% Tween-20/PBS and then incubated in goat anti-rabbit IRDye™ 800CW (LICOR Inc.; 1:1000) and DRAQ5 DNA dye (1:2000 for 2 mM stock) diluted in LICOR blocking buffer containing 0.1% Tween-20 and 0.01% SDS for 60 minutes. Cells were washed (50 μl/well, 5′ each) in 0.1% Tween-20/PBS. Plates were scanned on a LICOR Odyssey infrared imaging system. Integrated intensities in the 800 nm channel and 700 nm channel were measured to determine levels of ER and DNA respectively. Percent ER levels were determined as follows: (Integrated intensity 800 nm sample/integrated intensity 700 nm sample)/(Integrated intensity 800 nm untreated cells/integrated intensity 700 nm untreated cells)×100=% ER levels.

Another experiment concerns MCF-7 cells. Briefly: Breast Cancer Cell Viability Assay (MCF-7, CellTiter-Glo). The format is cell-based. The following applies: 5 days' compound exposure; for IC50: Homo sapiens, MCF7, 120 h. On the procedure: MCF-7 cells were adjusted to a concentration of 20,000 cells per mL in RPMI containing 10% FBS and 20 mM HEPES. 16 microliters of the cell suspension (320 cells) was added to each well of a 384 well plate, and the cells were incubated overnight to allow the cells to adhere. The following day an eleven point, serial semilog dilution of each compound was added to the cells in 16 μL at a final concentration ranging from 0.3-0.000003 μM. After 5 days' compound exposure, 16 μL of CellTiter-GLo (Promega, Madison Wis.) was added to the cells the relative luminescence units (RLUs) of each well was determined CellTiter-Glo added to 32 μL of medium without cells was used to obtain a background value. The Percent viability of each sample was determined as follows: (RLU sample-RLU background/RLU untreated cells-RLU background)×100=% viability.
A general note: Cellular ATP, detected with luciferase, serves as a proxy for viable cell number.

As to `CC/C(=C(/c1ccc(/C=C/C(=O)O)cc1)c1ccc2[nH]ncc2c1)c1cccc(F)c1F` [Compound 31, (E)-3-(4-((E)-2-(2,3-Difluorophenyl)-1-(1H-indazol-5-yl)but-1-en-1-yl)phenyl)acrylic acid], on ER-α, the Emax is at least 40% and the DC50 was at most 100 nM. In the experiment on MCF-7 cells, the “MCF7 Viability Assay Max Response” value is reported as “++ (++ = a single % value ≧ 40%)” and the IC50 (in general, the concentration that inhibits the measured activity by half) was at most 100 nM.
Turning to `CC/C(=C(/c1ccc(/C=C/C(=O)O)cc1)c1ccc2[nH]ncc2c1)c1cc(F)ccc1F` [Compound 32, (E)-3-(4-((E)-2-(2,5-Difluorophenyl)-1-(1H-indazol-5-yl)but-1-en-1-yl)phenyl)acrylic acid], at ER-α, the Emax was at least 40% and the DC50 was at most 100 nM. For the same molecule, in the experiment with MCF-7 cells, the “MCF7 Viability Assay Max Response” value is “++ (++ = a single % value ≧ 40%)” and the half-inhibitory concentration (IC50) was at most 100 nM.
In the case of `CC/C(=C(/c1ccc(/C=C/C(=O)O)cc1)c1ccc2[nH]ncc2c1)c1cc(F)ccc1Cl` [Compound 33, (E)-3-(4-((E)-2-(2-Chloro-5-fluorophenyl)-1-(1H-indazol-5-yl)but-1-en-1-yl)phenyl)acrylic acid], at ER-α, the Emax was at least 40% and the DC50 is at most 100 nM. Also, in the experiment on MCF-7 cells, the “MCF7 Viability Assay Max Response” value is listed as “++ (++ = a single % value ≧ 40%)” and the IC50 was at most 100 nM.
Consider `CC/C(=C(/c1ccc(/C=C/C(=O)O)cc1)c1ccc2[nH]ncc2c1)c1c(C)cccc1Cl` [Compound 34, (E)-3-(4-((E)-2-(2-Chloro-6-methylphenyl)-1-(1H-indazol-5-yl)but-1-en-1 yl)phenyl)acrylic acid], for which, at ER-α, the Emax was at least 40% and the DC50 was at most 100 nM. Moreover, in the experiment with MCF-7 cells, the “MCF7 Viability Assay Max Response” value was “++ (++ = a single % value ≧ 40%)” and the IC50 was at most 100 nM.
Consider `CC/C(=C(/c1ccc(/C=C/C(=O)O)cc1)c1cc(Cl)c2[nH]ncc2c1)c1ccccc1` [Compound 35, (E)-3-(4-((E)-1-(7-Chloro-1H-indazol-5-yl)-2-phenylbut-1-en-1-yl)phenyl)acrylic acid], for which, at ER-α, the Emax is at least 40% and the DC50 was at most 100 nM. For the same molecule, in the experiment on MCF-7 cells, the “MCF7 Viability Assay Max Response” value was “++ (++ = a single % value ≧ 40%)” and the IC50 is at most 100 nM.
Turning to `CC/C(=C(/c1ccc(/C=C/C(=O)O)cc1)c1ccc2[nH]ncc2c1C)c1ccccc1` [Compound 36, (E)-3-(4-((E)-1-(4-Methyl-1H-indazol-5-yl)-2-phenylbut-1-en-1-yl)phenyl)acrylic acid], at ER-α, the Emax was at least 40% and the DC50 was at most 100 nM. For the same molecule, in the experiment with MCF-7 cells, the “MCF7 Viability Assay Max Response” value is listed as “++ (++ = a single % value ≧ 40%)” and the IC50 is at most 100 nM.
As for `CC/C(=C(/c1ccc(/C=C/C(=O)O)cc1)c1cc(C)c2[nH]ncc2c1)c1ccccc1` [Compound 37, (E)-3-(4-((E)-1-(7-Methyl-1H-indazol-5-yl)-2-phenylbut-1-en-1-yl)phenyl)acrylic acid], on ER-α, the Emax was at least 40% and the DC50 is at most 100 nM. In the experiment with MCF-7 cells, the “MCF7 Viability Assay Max Response” value was “++ (++ = a single % value ≧ 40%)” and the IC50 is at most 100 nM.
For `CC/C(=C(/c1ccc(/C=C/C(=O)O)cc1)c1cc2cn[nH]c2cc1C)c1ccccc1` [Compound 38, (E)-3-(4-((E)-1-(6-Methyl-1H-indazol-5-yl)-2-phenylbut-1-en-1-yl)phenyl)acrylic acid], on ER-α, the Emax was at least 40% and the DC50 is above 100 nM. Also, in the experiment with MCF-7 cells, the “MCF7 Viability Assay Max Response” value is reported as “++ (++ = a single % value ≧ 40%)” and the IC50 is above 100 nM.
As to `CC/C(=C(/c1ccc(/C=C/C(=O)O)cc1)c1ccc2[nH]nc(C)c2c1)c1ccccc1` [Compound 39, (E)-3-(4-((E)-1-(3-Methyl-1H-indazol-5-yl)-2-phenylbut-1-en-1-yl)phenyl)acrylic acid], at ER-α, the Emax is at least 40% and the DC50 is above 100 nM. Moreover, in the experiment on MCF-7 cells, the “MCF7 Viability Assay Max Response” value is given as “++ (++ = a single % value ≧ 40%)” and the IC50 was above 100 nM.
As for `CC/C(=C(/c1ccc(/C=C/C(=O)O)cc1)c1ccc2[nH]nc(Cl)c2c1)c1ccccc1` [Compound 40, (E)-3-(4-((E)-1-(3-Chloro-1H-indazol-5-yl)-2-phenylbut-1-en-1-yl)phenyl)acrylic acid], on ER-α, the Emax was at least 40% and the DC50 is above 100 nM. Moreover, in the experiment on MCF-7 cells, the “MCF7 Viability Assay Max Response” value was “++ (++ = a single % value ≧ 40%)” and the IC50 is above 100 nM.
With `CC/C(=C(/c1ccc(/C=C/C(=O)O)cc1)c1ccc2[nH]ncc2c1)c1ccc(Cl)cc1C` [Compound 41, (E)-3-(4-((E)-2-(4-Chloro-2-methylphenyl)-1-(1H-indazol-5-yl)but-1-en-1-yl)phenyl)acrylic acid], at ER-α, the Emax was at least 40% and the DC50 is at most 100 nM. In the experiment with MCF-7 cells, the “MCF7 Viability Assay Max Response” value was “++ (++ = a single % value ≧ 40%)” and the concentration for half-maximal inhibition (IC50) was at most 100 nM.
As to `C/C(=C(/c1ccc(/C=C/C(=O)O)cc1)c1ccc2[nH]ncc2c1)c1ccccc1` [Compound 42, (E)-3-(4-((E)-1-(1H-Indazol-5-yl)-2-phenylprop-1-en-1-yl)phenyl)acrylic acid], on ER-α, the Emax is at least 40% and the DC50 was at most 100 nM. In the experiment on MCF-7 cells, the “MCF7 Viability Assay Max Response” value was “++ (++ = a single % value ≧ 40%)” and the concentration for half-maximal inhibition (IC50) is at most 100 nM.
As for `CCC/C(=C(/c1ccc(/C=C/C(=O)O)cc1)c1ccc2[nH]ncc2c1)c1ccccc1` [Compound 43, (E)-3-(4-((E)-1-(1H-Indazol-5-yl)-2-phenylpent-1-en-1-yl)phenyl)acrylic acid], at ER-α, the Emax is at least 40% and the DC50 was at most 100 nM. For the same molecule, in the experiment with MCF-7 cells, the “MCF7 Viability Assay Max Response” value is “++ (++ = a single % value ≧ 40%)” and the IC50 was at most 100 nM.
Take `CC/C(=C(/c1ccc(/C=C/C(=O)O)cc1)c1ccc2[nH]ncc2c1)c1cccc(C#N)c1` [Compound 44, (E)-3-(4-((E)-2-(3-Cyanophenyl)-1-(1H-indazol-5-yl)but-1-en-1-yl)phenyl)acrylic acid]: the Emax at ER-α is at least 40%. In addition, in the experiment on MCF-7 cells, the “MCF7 Viability Assay Max Response” value is on record as “++ (++ = a single % value ≧ 40%)” and the IC50 is at most 100 nM.
For the molecule `CC/C(=C(/c1ccc(/C=C/C(=O)O)cc1)c1ccc2[nH]ncc2c1)c1ccc(C#N)cc1` [Compound 45, (E)-3-(4-((E)-2-(4-Cyanophenyl)-1-(1H-indazol-5-yl)but-1-en-1-yl)phenyl)acrylic acid], at ER-α, the Emax is at least 40%. For the same molecule, in the experiment on MCF-7 cells, the “MCF7 Viability Assay Max Response” value is “++ (++ = a single % value ≧ 40%)” and the IC50 is at most 100 nM.
On to `O=C(O)/C=C/c1ccc(/C(=C(/CCO)c2ccccc2)c2ccc3[nH]ncc3c2)cc1` [Compound 46, (E)-3-(4-((E)-4-Hydroxy-1-(1H-indazol-5-yl)-2-phenylbut-1-en-1-yl)phenyl)acrylic acid], for which, on ER-α, the Emax was at least 40% and the DC50 was above 100 nM. In the experiment on MCF-7 cells, the “MCF7 Viability Assay Max Response” value is recorded as “+ (+ = a single % value < 40%)” and the concentration for half-maximal inhibition (IC50) was above 100 nM.
Consider `COCC/C(=C(/c1ccc(/C=C/C(=O)O)cc1)c1ccc2[nH]ncc2c1)c1ccccc1` [Compound 47, (E)-3-(4-((E)-1-(1H-Indazol-5-yl)-4-methoxy-2-phenylbut-1-en-1-yl)phenyl)acrylic acid], for which, at ER-α, the Emax was at least 40% and the DC50 is at most 100 nM. In the experiment on MCF-7 cells, the “MCF7 Viability Assay Max Response” value was “++ (++ = a single % value ≧ 40%)” and the half-inhibitory concentration (IC50) was at most 100 nM.
